# Measurements as given in paper PMC8689653 (ACS Catalysis, 2021).
# Test system: Lp-NOX
# Assay: NADH oxidation, absorbance at […] nm, Michaelis-Menten fit
# Format: biochemical, Lactiplantibacillus pentosus
# Settings: free enzyme; 0.2 mM NADH, 0.025-0.2 mM flavin, 25 mM phosphate pH 7, 30 °C
row,Km [µM],SMILES
1,41 ± 20,Cc1cc2nc3c(=O)[nH]c(=O)nc-3n(C[C@H](O)[C@H](O)[C@H](O)COP(=O)(O)OP(=O)(O)OC[C@H]3O[C@@H](n4cnc5c(N)ncnc54)[C@H](O)[C@@H]3O)c2cc1C [FAD]
2,215 ± 100,Cc1cc2nc3c(=O)[nH]c(=O)nc-3n(C[C@H](O)[C@H](O)[C@H](O)COP(=O)(O)O)c2cc1C [FMN]
